Measurements reported in patent publication US7842808B2, “Anti-migraine spirocycles” (Bristol-Myers Squibb Company, priority 2002, dated 2010).
Read-outs that look alike come from different tables or passages of the source.

Legend:
[1] = molecular target: T1, CGRP receptor (SK-N-MC cell membranes) (Homo sapiens, UniProt O60894+Q16602); experiment: CGRP Binding Assay ([125I]-CGRP radioligand binding, SK-N-MC homogenate)
T1 construct: endogenous in cells; host or cells: SK-N-MC cells (membrane homogenate)
T1 sequence (Q16602 23-461): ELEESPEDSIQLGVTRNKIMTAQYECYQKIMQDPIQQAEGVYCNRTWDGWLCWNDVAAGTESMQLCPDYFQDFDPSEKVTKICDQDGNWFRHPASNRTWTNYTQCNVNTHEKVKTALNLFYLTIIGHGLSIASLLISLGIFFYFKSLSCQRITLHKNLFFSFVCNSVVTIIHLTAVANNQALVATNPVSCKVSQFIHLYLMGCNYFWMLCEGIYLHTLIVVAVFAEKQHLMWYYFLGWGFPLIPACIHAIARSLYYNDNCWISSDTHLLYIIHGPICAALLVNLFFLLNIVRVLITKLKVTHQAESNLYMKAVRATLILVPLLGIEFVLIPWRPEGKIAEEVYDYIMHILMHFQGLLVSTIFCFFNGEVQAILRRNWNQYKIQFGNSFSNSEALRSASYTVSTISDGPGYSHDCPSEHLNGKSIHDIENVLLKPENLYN
T1 sequence (O60894 27-148): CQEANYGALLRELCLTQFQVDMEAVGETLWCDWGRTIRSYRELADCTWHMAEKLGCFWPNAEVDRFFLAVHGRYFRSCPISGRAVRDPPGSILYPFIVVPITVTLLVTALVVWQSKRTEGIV

[2] = molecular target: T2, human CGRP receptor (SK-N-MC cells) (Homo sapiens, UniProt O60894+Q16602); experiment: Cyclic AMP Assay, functional antagonism of CGRP-induced cyclic AMP formation; format: cell-based
T2 construct: SK-N-MC cells that endogenously express the human CGRP receptor; endogenous in cells; host or cells: SK-N-MC cells
T2 sequence (Q16602 23-461): as the sequence (Q16602 23-461) above
T2 sequence (O60894 27-148): as the sequence (O60894 27-148) above
Method in brief: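 SK-N-MC cells, which endogenously express human CGRP receptor, stimulated with 0.3 nM CGRP with or without compound for 30 min at room temperature. Cellular cAMP extracted by lysis and quantified by SPA radioimmunoassay; IC50 from inhibition of CGRP-induced cAMP.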

[3] = tested on: human cerebral vessels (CGRP-induced dilation); experiment: Ex Vivo Human Cerebral Artery Assay, reversal of CGRP-induced relaxation; conditions: reversal of 1 nM hCGRP-induced relaxation, vessels pre-contracted with 10 mM KCl
From the text: Rationale and Overview. To provided direct evidence of the ability for novel compounds to reverse CGRP-induced dilation in human cerebral vessels, an ex vivo assay was design. Briefly, isolated vessel rings were mounted in a tissue bath where vessels were pre-contracted with potassium chloride (KCl) and fully dilated with hCGRP, then this relaxation was reversed by the cumulative addition of CGRP-receptor antagonists (complete details follow).
Tissue Samples. Autopsy samples of human arteries were obtained from vendors (ABS Inc. or NDRI). All vessels were transported on ice-cold HEPES buffer (composition in mM: NaCl 130, KCl 4, KH2PO4 1.2, MgSO4 1.2, CaCl2 1.8, Glucose 6, NaHCO3 4, HEPES 10, EDTA 0.025). Upon receipt, the vessels were placed in cold Kreb's buffer (composition in mM: NaCl 118.4, KCl 4.7, KH2PO4 1.2, MgSO4 1.2, CaCl2 1.8, Glucose 10.1, NaHCO3 25) saturated with carbogen (5% CO2 and 95% oxygen).
Isolated Tissue Baths. The vessels were cleaned of connective tissues and cut into cylindrical segments of 4-5 mm in length. The vessels were then mounted in tissue baths between two stainless steel hooks; one of which is fixed and the other of which was connected to a force displacement transducer. The vessel tension was continuously recorded using a data acquisition system (Powerlab, ADInstruments, Mountain View, Calif.) connected to the transducer. The tissue baths containing Krebs buffer and mounted vessels were temperature (37° C.) and pH (7.4) controlled with continuous bubbling of carbogen. The artery segments were allowed to equilibrate for about 30-45 min until a stable resting tone was achieved. Prior to the assay, vessels were primed (conditioned) with 100 mM KCl and subsequently washed. The vessels were pre-contracted with 10 mM KCl and fully dilated with 1 nM hCGRP. Concentration-response curves to CGRP-receptor antagonists were performed by the cumulative addition of drugs in half log units in fully dilated vessels. At each concentration, the effects of the drugs were expressed as % reversal of CGRP-induced relaxation in each vessel. The actual assay and data analysis were performed for each vessel individually, fitting the concentration-response data to a four parameter logistic function by non-linear regression analysis, to estimate the EC50 values.

[4] = displacement of [125I]-CGRP, SK-N-MC homogenate, read-out: CGRP binding IC50
[5] = SK-N-MC cells, 0.3 nM CGRP, read-out: cAMP Function IC50

Compound	IC50 [1, 4]	IC50 [2, 5]	EC50 [3]	IC50 [1]	IC50 [2]
Cc1cc(CC(CC(=O)N2CCC(N3Cc4ccccc4NC3=O)CC2)C(=O)N2CCC(C)CC2)cc2cn[nH]c12 (racemic) [Example 74, (±)-2-(7-Methyl-1H-indazol-5-ylmethyl)-1-(4-methyl-piperidin-1-yl)-4-[4-(2-oxo-1,4-dihydro-2H-quinazolin-3-yl)-piperidin-1-yl]-butane-1,4-dione]	< 10 nM	< 10 nM	< 10 nM	–	–
O=C1Nc2ccccc2C2(CCN(C(=O)C[C@H](Cc3csc4ccccc34)C(=O)N3CCC(N4CCCCC4)CC3)CC2)O1 [Example 65]	< 10 nM	10 to 100 nM	10 to 100 nM	–	–
O=C(NC(CN1CCc2[nH]ncc2C1)C(=O)N1CCC(N2CCCCC2)CC1)N1CCC(N2Cc3ccccc3NC2=O)CC1 (racemic) [Example 54, (±)-4-(2-Oxo-1,4-dihydro-2H-quinazolin-3-yl)-piperidine-1-carboxylic acid[2-[1,4′]bipiperidinyl-1′-yl-2-oxo-1-(1,4,6,7-tetrahydro-pyrazolo[4,3-c]pyridin-5-ylmethyl)-ethyl]-amide]	10 to 100 nM	100 to 1000 nM	< 10 nM	–	–
O=C(NC(Cc1ccc2[nH]ncc2c1)C(=O)N1CCC2(CC1)OCCO2)N1CCC(n2c(=O)[nH]c3ccccc32)CC1 (racemic) [Example 10, (±)-4-(2-Oxo-2,3-dihydro-benzoimidazol-1-yl)-piperidine-1-carboxylic acid[2-(1,4-dioxa-8-aza-spiro[4.5]dec-8-yl)-1-(1H-indazol-5-ylmethyl)-2-oxo-ethyl]-amide]	–	–	–	100 to 1000 nM	10 to 100 nM
Cc1cc(CC(CC(=O)N2CCC(N3Cc4ccccc4NC3=O)CC2)C(=O)N2CCCCC2)cc2cn[nH]c12 (racemic) [Example 78, (±)-2-(7-Methyl-1H-indazol-5-ylmethyl)-4-[4-(2-oxo-1,4-dihydro-2H-quinazolin-3-yl)-piperidin-1-yl]-1-piperidin-1-yl-butane-1,4-dione]	< 10 nM	< 10 nM	–	–	–
COc1ccc(C(=O)N[C@@H](CC(=O)N2CCC(N3Cc4ccccc4NC3=O)CC2)C(=O)N2CCC(N3CCCCC3)CC2)cc1 [Example 99, (L)-N-{1-([1,4′]Bipiperidinyl-1′-carbonyl)-3-oxo-3-[4-(2-oxo-1,4-dihydro-2H-quinazolin-3-yl)-piperidin-1-yl]-propyl}-4-methoxy-benzamide]	> 1000 nM	> 1000 nM	–	–	–
O=C(NC(Cc1ccc2[nH]ncc2c1)C(=O)N1CCNCC1)N1CCC(N2Cc3ccccc3NC2=O)CC1 (stereo not shown) [Example 39, 4-(2-Oxo-1,4-dihydro-2H-quinazolin-3-yl)-piperidine-1-carboxylic acid[1-(1H-indazol-5-ylmethyl)-2-oxo-2-piperazin-1-yl-ethyl]-amide]	100 to 1000 nM	100 to 1000 nM	–	–	–
O=C(NC(Cc1ccc2[nH]ncc2c1)C(=O)N1CCC2(CC1)OCCO2)N1CCC(N2Cc3ccccc3NC2=O)CC1 (racemic) [Example 11, (±)-4-(2-Oxo-1,4-dihydro-2H-quinazolin-3-yl)-piperidine-1-carboxylic acid[2-(1,4-dioxa-8-aza-spiro[4.5]dec-8-yl)-1-(1H-indazol-5-ylmethyl)-2-oxo-ethyl]-amide]	10 to 100 nM	–	–	–	10 to 100 nM
O=C(NC(Cc1ccc2[nH]ncc2c1)C(=O)N1CCC(N2Cc3ccccc3NC2=O)CC1)N1CCC(N2Cc3ccccc3NC2=O)CC1 (stereo not shown) [Example 37, 4-(2-Oxo-1,4-dihydro-2H-quinazolin-3-yl)-piperidine-1-carboxylic acid{1-(1H-indazol-5-ylmethyl)-2-oxo-2-[4-(2-oxo-1,4-dihydro-2H-quinazolin-3-yl)-piperidin-1-yl]-ethyl}-amide]	< 10 nM	10 to 100 nM	–	–	–
CC(C)CN1CCN(C(=O)C(Cc2ccc3[nH]ncc3c2)NC(=O)N2CCC(n3c(=O)[nH]c4ccccc43)CC2)CC1 (racemic) [Example 9, (±)-4-(2-Oxo-2,3-dihydro-benzoimidazol-1-yl)-piperidine-1-carboxylic acid[1-(1H-indazol-5-ylmethyl)-2-(4-isobutyl-piperazin-1-yl)-2-oxo-ethyl]-amide]	10 to 100 nM	10 to 100 nM	–	–	–
O=C1NCC2(CCN(C(=O)N[C@H](Cc3csc4ccccc34)C(=O)N3CCC(N4CCCCC4)CC3)CC2)c2ccccc21 [Example 63, N-[(1R)-1-(Benzo[b]thien-3-ylmethyl)-2-[1,4-bipiperidin]-1-yl-2-oxoethyl]-2′,3′-dihydro-1-oxospiro-[piperidine-4,4′(1H)-isoquinoline]-1-carboxamide]	100 to 1000 nM	100 to 1000 nM	–	–	–
O=C(N[C@H](Cc1csc2ccccc12)C(=O)N1CCC(N2CCCCC2)CC1)N1CCC2(CC1)Cc1ccccc1NC2=O [Example 61, (R)-1-Oxo-3,4-benzo-2,9-diaza-spiro[5.5]undec-3-ene-9-carboxylic acid (1-benzo[b]thiophen-3-ylmethyl-2-[1,4′]bipiperidinyl-1′-yl-2-oxo-ethyl)-amide]	100 to 1000 nM	100 to 1000 nM	–	–	–
Cc1cc(CC(NC(=O)N2CCC3(CC2)OC(=O)Nc2ccccc23)C(=O)N2CCCCC2)cc2cn[nH]c12 (racemic) [Example 26, (±)-1-(7-Methyl-1H-indazol-5-ylmethyl)-2-(1-piperidinyl)-2-oxoethyl]-1′,2′-dihydro-2′-oxospiro-[4H-3′,1-benzoxazine-4,4′-piperidine]-1-carboxamide]	10 to 100 nM	10 to 100 nM	–	–	–
CCC(C)CN1CCN(C(=O)C(Cc2ccc3[nH]ncc3c2)NC(=O)N2CCC(N3Cc4ccccc4NC3=O)CC2)CC1 (stereo not shown) [Example 40a, 4-(2-Oxo-1,4-dihydro-2H-quinazolin-3-yl)-piperidine-1-carboxylic acid{1-(1H-indazol-5-ylmethyl)-2-[4-(2-methyl-butyl)-piperazin-1-yl]-2-oxo-ethyl}-amide]	< 10 nM	< 10 nM	–	–	–
O=C(NC(Cc1ccc2[nH]ncc2c1)C(=O)N1CCN(C(=O)OCc2ccccc2)CC1)N1CCC(N2Cc3ccccc3NC2=O)CC1 (stereo not shown) [Example 38, 4-(3-(1H-Indazol-5-yl)-2-{[4-(2-oxo-1,4-dihydro-2H-quinazolin-3-yl)-piperidine-1-carbonyl]-amino}-propionyl)-piperazine-1-carboxylic acid benzyl ester]	10 to 100 nM	10 to 100 nM	–	–	–
Cc1cc(CC(NC(=O)N2CCC3(CC2)OC(=O)Nc2ccccc23)C(=O)N(C)C)cc2cn[nH]c12 (racemic) [Example 27, (±)-[1-Dimethylcarbamoyl-2-(7-methyl-1H-indazol-5-yl)-ethyl]-1′,2′-dihydro-2′-oxospiro-[4H-3′,1-benzoxazine-4,4′-piperidine]-1-carboxamide]	10 to 100 nM	100 to 1000 nM	–	–	–
C#CCNC(=O)C(CC(=O)N1CCC(N2Cc3ccccc3NC2=O)CC1)Cc1cc(C)c2[nH]ncc2c1 (racemic) [Example 84, (±)-2-(7-Methyl-1H-indazol-5-ylmethyl)-4-oxo-4-[4-(2-oxo-1,4-dihydro-2H-quinazolin-3-yl)-piperidin-1-yl]-N-prop-2-ynyl-butyramide]	10 to 100 nM	10 to 100 nM	–	–	–
O=C1Nc2ccccc2C2(CCN(C(=O)N[C@H](Cc3csc4ccccc34)C(=O)N3CCC(N4CCCCC4)CC3)CC2)O1 [Example 64, N-[(1R)-1-(Benzo[b]thien-3-ylmethyl)-2-[1,4′-bipiperidin]-1′-yl-2-oxoethyl]-1,2-dihydro-2-oxospiro-[4H-3,1-benzoxazine-4,4′-piperidine]-1′-carboxamide]	10 to 100 nM	–	10 to 100 nM	–	–
Cc1cc(CC(CC(=O)N2CCC(N3Cc4ccccc4NC3=O)CC2)C(=O)N2CC(C)OC(C)C2)cc2cn[nH]c12 (racemic) [Example 73, (±)-1-(2,6-Dimethyl-morpholin-4-yl)-2-(7-methyl-1H-indazol-5-ylmethyl)-4-[4-(2-oxo-1,4-dihydro-2H-quinazolin-3-yl)-piperidin-1-yl]-butane-1,4-dione]	10 to 100 nM	10 to 100 nM	–	–	–
O=C(C[C@H](Nc1cc(Cl)ncn1)C(=O)N1CCC(N2CCCCC2)CC1)N1CCC(N2Cc3ccccc3NC2=O)CC1 [Example 88, (L)-1-[1,4′]Bipiperidinyl-1′-yl-2-(6-chloro-pyrimidin-4-ylamino)-4-[4-(2-oxo-1,4-dihydro-2H-quinazolin-3-yl)-piperidin-1-yl]-butane-1,4-dione]	100 to 1000 nM	10 to 100 nM	–	–	–
